Assay results taken from patent US10202391B2, “Chemical compounds” (AstraZeneca AB, priority 2015, dated 2019).

Experiments:
[1] = target: T1, ERK2 (Homo sapiens, UniProt P28482); assay: ERK2 Rapidfire Mass Spectrometry Inhibition of Catalysis Assay; assay type: biochemical; details: 1.2 nM ERK2, 16 μM Erktide, 120 μM ATP (measured Km), 15 minute pre-incubation; read-out: ERK2 Mass Spectrometry Enzyme IC50
T1 construct: made in house
Experimental: (§1) All compounds or DMSO (dimethyl sulphoxide) for the ERK2 Mass Spectrometry and A375 phospho-p90RSK assays were dispensed from source plates containing compounds at 10 mM in 100% (v/v) DMSO or 100% DMSO, directly into assay plates using an Echo 555 Acoustic dispenser (Labcyte Inc™). Depending on the assay, two separate plate preparations were followed. In Workflow A, 10 mM compound stocks were diluted 1:100 using a fixed-tip 96-head Agilent VPrep liquid handler (Agilent Technologies, Santa Clara, Calif.) to give four intermediate dilutions (10 mM, 100 μM, 1 μM, 10 nM). In Workflow B, 10 mM compound stocks were diluted 1:10 using a Tecan Freedom Evo (Tecan Group Ltd., Switzerland), and then 1:100 using the Echo 555 and Labcyte LX to produce three intermediate dilutions across three Labcyte qualified source plates (1 mM, 10 μM, 100 nM). These intermediate dilution plates were then used by the Echo 555 to generate final assay-ready compound plates with a 12 point dose range (10, 3, 1, 0.25, 0.1, 0.03, 0.01, 0.0025, 0.001, 0.0003, 0.0001, 0.0000125 μM) in order to calculate compound IC50s, with a total DMSO concentration in the assay of 1%. For the ERK2 Mass Spectrometry assay Workflow B was used. For the A375 phospho-p90RSK cell assay, the intermediate 1:100 dilution plate described in Workflow A was used by the Echo to dispense compounds and DMSO directly into the cell plates with a 12 point dose range (30, 10, 3.125, 1.25, 0.3, 0.1, 0.03125, 0.0125, 0.003, 0.001, 0.0003125, 0.00003 μM) in order to calculate compound IC50's, with a total DMSO concentration in the assay of 0.3%.
ERK2 Rapidfire Mass Spectrometry Inhibition of Catalysis Assay
MEK U911-activated ERK2 protein was expressed and purified in-house. Enzyme and substrate solutions were made up in assay buffer consisting of 50 mM Tris (pH 7.5), 10 mM MgCl2, 0.1 mM EGTA (ethylene glycol tetraacetic acid), 10 mM DTT (dithiothreitol) and 0.01% (v/v) CHAPS (3-[(3-Cholamidopropyl)dimethylammonio]-1-propanesulfonate). 1.2 nM ERK2 protein was prepared in assay buffer and 10 μl was dispensed into each well of a polypropylene, 384-well plate (#781201, Greiner) containing test and reference control compounds. […] The reaction was allowed to progress for 20 minutes at room temperature before being quenched by the addition of 80 al 1% (v/v) formic acid. The assay plates were then run on the RapidFire Mass Spectrometry platform (Agilent) to measure substrate (unphosphorylated Erktide) and product (phosphorylated Erktide) levels. Data was analysed and IC50's (half maximal inhibitory concentration) were calculated using Genedata Screener® software.

[2] = system: phospho-p90RSK in A375 cell line; assay: A375 Phospho-p90RSK Cellular Assay; assay type: cell-based, human; details: A375 cells, 2 hours incubation
Experimental: as §1
A375 Phospho-p90RSK Cellular Assay
A375 cells were cultured in cell media composed of DMEM (Dulbecco's modified Eagle's medium), 10% (v/v) Foetal Calf Serum and 1% (v/v) L-Glutamine. After harvesting, cells were dispensed into black, 384-well Costar plates (#3712, Corning) to give 2400 cells per well in a total volume of 40 μl cell media, and were incubated overnight at 37° C., 90% relative humidity and 5% CO2 in a rotating incubator. Test compounds and reference controls were dosed directly into the cell plates using a Labcyte Echo 555 acoustic dispenser. The cell plates were then incubated for 2 hours at 37° C. before being fixed by the addition of 20 μl 12% formaldehyde in PBS/A (4% final concentration), followed by a 20 minute room temperature incubation, and then a 2× wash with 150 μl PBS/A (phosphate buffered saline containing albumin) using a BioTek ELx405 platewasher. Cells were permeabilised with 20 μl 0.1% Triton X-100 in PBS/A for 20 minutes at room temperature, and then washed 1× with 100 μl PBS/A. Primary phospho-p90RSK (Thr359) (D1E9) rabbit monoclonal antibody (#8753, Cell Signaling Technology) was diluted 1:1000 in assay buffer (0.05% (v/v) Tween, 5% (v/v) Foetal Calf Serum, in PBS/A), 20 μl added per well, and plates were incubated at 4° C. overnight. Cell plates were washed 2× with 200 μl PBS/T (phosphate buffered saline containing Tween-20), then 20 μl 1:500 dilution in assay buffer of Alexa Fluor® 647 goat anti-rabbit IgG secondary antibody (#A31573, Molecular Probes, Life Technologies), with a 1:5000 dilution of Hoechst 33342, was added per well. Following a 90 minute incubation at room temperature, plates were washed 2× with 200 μl PBS/T, and 40 μl PBS/A was added per well. Stained cell plates were covered with black lid seals, and then read on a Cellomics ArrayScan™ VTI imaging platform (Thermo Scientific), using an XF53 filter with 10× objective, with a LED light source set-up to analyse nuclear staining with Hoechst 33342 (405 nm) and secondary antibody staining of phospho-p90RSK (647 nm). Data was analysed and IC50's were calculated using Genedata Screener® software.

[3] = system: A549 xenograft; assay: Tumour growth inhibition in A549 xenograft model; assay type: in vivo, mice; details: selumetinib 25 mg/kg BiD or Example 18a 25 mg/kg QD, peroral, continuously for 3 weeks, relative to vehicle
Experimental: A549 is a human non small cell lung cancer line carrying an oncogenic mutation in the KRAS gene (G12S). Female nude mice (Harlan, UK) were implanted subcutaneously (s.c.) on the left flank, with 5×10^6 A549 cells (ATCC) per mouse.
Tumour growth was monitored by twice weekly calliper measurement and volumes calculated using elliptical formula (pi/6×width×width×length). Once tumours had reached a volume of ˜200-300 mm^3 animals were randomised into groups of 7-11 and were treated with a continuous combination schedule of selumetinib (ARRY-142886) 25 mg/kg BiD and Example 18a 25 mg/kg QD (four hours after first selumetinib dose), both were dosed by peroral route. Tumour volumes were measured twice weekly after dosing commenced.
Selumetinib was formulated in HPMC/Tween (0.5% Methocel [hydroxypropyl methocellulose]/0.1% Polysorbate 80), the suspension was stirred over night. Example 18a was formulated in 10% DMSO, 90% of a 40% kleptose solution (Kleptose is sourced from Roquette—Pharma [Trademarked] Hydroxypropyl betacyclodextrin—suitable for in-vivo use and formulations).
Studies were performed in the A549 xenograft model. Selumetinib was dosed twice daily (BiD) 8 hours apart and Example 18a was dosed once daily (QD) 4 hours after the first selumetinib dose. Both compounds were dosed continuously for 3 weeks. Both vehicles were dosed in the vehicle group.

T1 sequence (P28482 whole entry): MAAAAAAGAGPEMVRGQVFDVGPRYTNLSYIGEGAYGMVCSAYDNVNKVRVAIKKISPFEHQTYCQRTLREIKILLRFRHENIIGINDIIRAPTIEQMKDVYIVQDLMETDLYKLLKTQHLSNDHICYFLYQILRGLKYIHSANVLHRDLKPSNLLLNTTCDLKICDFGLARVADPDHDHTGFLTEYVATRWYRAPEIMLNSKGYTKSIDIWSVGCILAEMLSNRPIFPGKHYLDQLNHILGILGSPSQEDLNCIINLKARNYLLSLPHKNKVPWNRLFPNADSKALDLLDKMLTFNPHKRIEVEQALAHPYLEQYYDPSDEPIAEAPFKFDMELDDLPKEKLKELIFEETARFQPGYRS

Row | Structure (SMILES) | IC50 [1] | IC50 [2] | tumour growth, single agent [3] | IC50 ([2]; Homo sapiens, A-375)
1 | COC[C@H]1Cn2cc(-c3nc(Nc4ccnn4C)ncc3C)nc2C(=O)N1Cc1ccc(F)c(F)c1 [Example 18a, (R)-7-(3,4-Difluorobenzyl)-6-(methoxymethyl)-2-(5-methyl-2-((1-methyl-1H-pyrazol-5-yl)amino)pyrimidin-4-yl)-6,7-dihydroimidazo[1,2-a]pyrazin-8(5H)-one Ethanesulfonic acid adduct Form 1] | 0.6 nM | 7.4 nM | reduced tumour growth relative to vehicle only control | 
2 | Cc1cnc(Nc2ccnn2C)nc1-c1cn2c(n1)C(=O)N(Cc1ccc(F)c(Cl)c1)CC2 [Example 12, 7-(3-Chloro-4-fluorobenzyl)-2-(5-methyl-2-((1-methyl-1H-pyrazol-5-yl)amino)pyrimidin-4-yl)-6,7-dihydroimidazo[1,2-a]pyrazin-8(5H)-one] | 0.6 nM |  |  | 3 nM
3 | C[C@H]1Cn2cc(-c3nc(Nc4ccnn4C)ncc3Cl)nc2C(=O)N1Cc1ccnc(C(F)(F)F)n1 [Example 8, (S)-2-(5-chloro-2-((1-methyl-1H-pyrazol-5-yl)amino)pyrimidin-4-yl)-6-methyl-7-((2-(trifluoromethyl)pyrimidin-4-yl)methyl)-6,7-dihydroimidazo[1,2-a]pyrazin-8(5H)-one] | 1.1 nM |  |  | 210 nM
4 | Cc1cnc(Nc2ccnn2C)nc1-c1cn2c(n1)C(=O)N(Cc1cccc(C(F)(F)F)n1)[C@H](C)C2 [Example 36, (R)-6-Methyl-2-(5-methyl-2-((1-methyl-1H-pyrazol-5-yl)amino)pyrimidin-4-yl)-7-((6-(trifluoromethyl)pyridin-2-yl)methyl)-6,7-dihydroimidazo[1,2-a]pyrazin-8(5H)-one] | 1.4 nM |  |  | 51 nM
5 | Cc1cnc(Nc2ccnn2C)nc1-c1cn2c(n1)C(=O)N(Cc1cccc(Cl)c1)[C@@H](C)C2 [Example 19, (S)-7-(3-Chlorobenzyl)-6-methyl-2-(5-methyl-2-((1-methyl-1H-pyrazol-5-yl)amino)pyrimidin-4-yl)-6,7-dihydroimidazo[1,2-a]pyrazin-8(5H)-one] | 0.5 nM |  |  | 5.3 nM
6 | COc1cc(CN2C(=O)c3nc(-c4nc(Nc5ccnn5C)ncc4C)cn3C[C@@H]2C)ccc1F [Example 24, (S)-7-(4-Fluoro-3-methoxybenzyl)-6-methyl-2-(5-methyl-2-((1-methyl-1H-pyrazol-5-yl)amino)pyrimidin-4-yl)-6,7-dihydroimidazo[1,2-a]pyrazin-8(5H)-one] | 0.5 nM |  |  | 84 nM
